In patent publication US10617689B2, “Compositions, methods and uses for the treatment of diabetes and related conditions by controlling blood glucose level” (PHARNEXT, priority 2013, dated 2020):

Legend:
[1] = Results synthesis: relative performance value over all in vitro models; conditions: results of all in vitro models normalized and weighed; single drugs
From the text: Table 4 gathers results that were obtained in all previously described models (see points from 1.1 to 1.5 above). A value is attributed to each candidate compound depending on its effect in the different in vitro models compared to vehicle. Results are normalized and weighed in order to generate a relative performance value for each candidate compound. A high value reflects a high potential of the compound for the normalization of glucose level and thus a significant efficacy for controlling glucose levels and/or for the treatment of diabetes or related disorders. […]

[2] = test system: TNF-α induced insulin resistant 3T3-L1 adipocytes; assay: Glucose uptake in TNFα induced insulin resistant 3T3-L1 differentiated adipocytes; type: cell-based; conditions: for glucose uptake (in words): not shown
Method: 3T3L1 fibroblasts were maintained in DMEM 4.5 g/L glucose supplemented with 5% calf serum donor, 5% new born calf serum, 100 U/mL penicillin, and 100 μg/mL streptomycin at 37° C. under a 10% CO2 atmosphere. Cells were grown on 24 well plates at a density of 2560 cells/well in 0.5 mL of growth medium (DMEM 4.5 g/L glucose supplemented with 10% FCS, 100 U/mL penicillin, and 100 μg/mL streptomycin). […] Fresh medium were replaced after two days.
Glucose uptake was measured by quantification of incorporated radiolabelled glucose, after an incubation step with 2-deoxy-D[1,2^3H] glucose for 5 min. Glucose uptake was arrested by two washing steps in ice-cold PBS 1×. Then were solubilized in 0.1N NaOH for 30 min. Cell associated radioactivity have been then counted by using a MicroBeta counter after adding 600 μL per well of scintillant (Optiphase SuperMix3).
In parallel, protein quantification was determined by a colorimetric assay derived from LOWRY method. Results are expressed in nmol of glucose incorporated/5 min/mg of protein and in % of control or basal condition (100%).

[3] = test system: beta pancreatic INS-1 cells; assay: Prevention of beta cells apoptosis; type: cell-based; conditions: 1 h pre-incubation then 24 h in apoptotic condition, drugs tested alone
Method: Drugs of the invention have been tested for their efficiency in protecting beta cells from apoptosis. Such activity could be considered of use in type 1 diabetes as well as in type 2 diabetes.
The beta pancreatic INS-1 cells have been selected for this study. The cells are cultured in complete medium, RPMI 1640 10 mM glucose supplemented with 1 mM sodium pyruvate, 50 μM 2-mercaptoethanol, 2 mM glutamine, 10 mM HEPES, 100 IU/mL penicillin, 100 μg/mL streptomycin and 10% heat-inactivated foetal calf serum (FCS), as described by Asfari et al. (23). INS-1 cells are plated (4.5×10^4 cells/well) in 96-well poly ornithine coated plates and cultured at 37° C. in a humidified atmosphere of 95% air/5% CO2. The day after, cells are pre-incubated with the tested molecules for 1 h. Then, after a medium change, cells are cultured for 24 h in a medium containing the tested molecules and glucose 30 mM, myristic acid 0.05 mM, INF 25 ng/mL, TNF 25 ng/mL and IL 5 ng/mL.
The efficacy of compounds to prevent apoptosis is then evaluated by the highly specific apoptosis detection kit from Chemicon (Ref. APT225). This procedure is based on the detection of single-stranded DNA (ssDNA) which is a specific marker of apoptotic cells (24).
Results are expressed in optical density (OD) arbitrary unit and % of reduction of the apoptosis induced by apoptotic condition. […]

[4] = test system: Mouse muscle cells H-2 Kb; assay: Glucose uptake in mouse muscle cells; type: cell-based; conditions: H-2 Kb cells; short term; 0.1 μM; vs non-treated cells
Method: For differentiation in myoblast, cells are switched to non-permissive culture conditions (37° C. in a humidified atmosphere of 95% air/5% CO2; DMEM 5.5 mM D-glucose supplemented with 2% FCS, 10% horse serum, 2% glutamine, 1% chicken embryo extract, 100 U/mL penicillin, and 100 μg/mL streptomycin).
For long term effect evaluation, the day before glucose uptake assay, cells are incubated in DMEM 5.5 mM D-glucose supplemented with 10% horse serum, 2% SVF, 1% chicken embryo extract, 2% glutamine in the presence of the tested molecules for 16 h. […]
For short term effect evaluation, 4 hours prior to the glucose test, cells are washed and incubated in a serum-free medium (DMEM) containing 5.5 mM D-glucose and the tested molecules. Then glucose uptake is measured by incubation of the cells for 5-10 min with radiolabelled 2-deoxy-D-[1,2 ^3H] glucose in Krebs-Ringer HEPES buffer (KRBH; pH 7.4) 0.1% Bovine Serum Albumine (BSA) fraction V (Sigma_A-4503). […] Cell associated radioactivity is then counted and protein quantification is determined using the colorimetric Lowry method. Glucose uptake is estimated by measuring the radioactivity incorporated to the cells by a MicroBeta counter after adding 600 μL per well of scintillant (Optiphase SuperMix3).
Protein quantification is performed by a colorimetric assay derived from Lowry method. […]

[5] = mainly from Martindale (Edition 2011) and Nathan et al. (2009); cited from earlier work
[6] = test system: human primary myotubes derived from a diabetic patient; assay: Glucose uptake in human diabetic myotubes primary cultures; type: cell-based; conditions: for enhancement of glucose uptake: pre-treatment
Method: In order to have a model that is most reflective of the diabetic pathological conditions, efficiency of drugs in enhancing glucose uptake in diabetic myotubes was tested. […] The myotubes from a diabetic patient were grown on HAM's F10-based media (Sigma, ref […]) supplemented with 15% of fetal bovine serum, 1 mM glutamine. Myoblast were seeded at 380,000 cells/well in 12-well plates. After 2 days of proliferation, the cells were placed in reduced serum conditions (2% horse serum) to induce differentiation. The myotubes were used after 5 days of differentiation. Dulbecco's modified Eagle's medium (DMEM)-based media (Gibco, ref 31053-028) supplemented with 2% heat-inactivated Horse serum, 2% Glutamax (Gibco, 35050) and washed for glucose uptake assays. Compounds were dissolved in DMSO to reach desired final concentration prior use. The differentiated myotubes were treated for 24 h with the compositions of the invention, before the assay. Before the initiation of glucose uptake, the cells were deprived of serum and glucose. […] After adding the compounds at the desired concentrations, the cells were incubated at 37° C. during 2 h30. […] A subsequent glucose and serum deprivation was performed in FIBS buffer at 37° C. for 2 hours. […] The cells were rinsed twice with 1 mL of cold PBS. The lysis was performed in 500 μL of 0.05N NaOH for 20 minutes. The cells lysates were transferred into scintillation vials for the measurement of radioactivity with a MicroBeta counter.

SMILES | Relative performance value [1] | also measured
NCC(CC(=O)O)c1ccc(Cl)cc1 (racemic) [baclofen] | 16 | glucose uptake, drug used alone (in words) ([2]; alone at 3.3 nM): No significant effect
O=C[C@@H](O)[C@@H](O)[C@H](O)[C@H](O)CO [D-mannose] | 18 | –
CC(=O)NCCCS(=O)(=O)O [acamprosate] | 15 | Percentage of apoptosis reduction [3]: 49%; enhancement of glucose uptake [4]: +45%
C=CCNc1nc(NCC=C)nc(N2CCN(C(c3ccc(F)cc3)c3ccc(F)cc3)CC2)n1 [almitrine] | 38 | –
CN1CCCC(n2nc(Cc3ccc(Cl)cc3)c3ccccc3c2=O)CC1 (centres unmarked) [azelastine] | 30 | –
CCN(CC)CCOCCOC(=O)C1(c2ccccc2)CCCC1 [carbetapentane] | 33 | –
CN/C(=N/CCSCc1nc[nH]c1C)NC#N [cimetidine] | 31 | –
C[C@@H](NCCCc1cccc(C(F)(F)F)c1)c1cccc2ccccc12 [cinacalcet] | 32 | –
CN(C)CC[C@@H](c1ccc(Br)cc1)c1ccccn1 [dexbrompheniramine] | 21 | –
CCN[C@@H](C)Cc1cccc(C(F)(F)F)c1 [dexfenfluramine] | – | Side Effects [5]: Cardiovascular
CCN(CC)C(=O)N1CCN(C)CC1 [diethylcarbamazine] | 32 | –
Cn1c(=O)c2c(ncn2CC(O)CO)n(C)c1=O (centres unmarked) [diprophylline] | 11 | –
O=C1NCC2(CCN(CCc3ccccc3)CC2)O1 [fenspiride] | – | glucose uptake (in words) ([2]; 0.37 nM and 3.3 nM): improvement; enhancement of glucose uptake ([6]; 0.01 μM): +34%; enhancement of glucose uptake ([6]; 0.1 μM): +30%; enhancement of glucose uptake ([6]; 1 μM): +27%
COC1=C(OC)C(=O)C(CCCCCCCCCCO)=C(C)C1=O [idebenone] | 53 | –
CC(C(O)c1ccc(O)cc1)N1CCC(Cc2ccccc2)CC1 (centres unmarked) [ifenprodil] | 28 | glucose uptake (in words) ([2]; 10 nM and 100 nM): improvement; glucose uptake (in words) ([6]; 0.1 μM and 1 μM): improvement; enhancement of glucose uptake ([6]; 0.01 μM): +48%
C[C@@H]1CC(=O)NN=C1c1ccc(NN=C(C#N)C#N)cc1 [levosimendan] | 20 | –
CN(C)C(=N)N=C(N)N [metformin] | – | glucose uptake, drug used alone (in words) ([2]; metformin alone at 250 μM): No significant effect
Cc1cccc(C)c1OCC(C)N (centres unmarked) [mexiletine] | 10 | –
CO[C@]12C[C@@H](COC(=O)c3cncc(Br)c3)CN(C)[C@@H]1Cc1cn(C)c3cccc2c13 [nicergoline] | 40 | –
c1cnc(N2CCN(Cc3ccc4c(c3)OCO4)CC2)nc1 [piribedil] | 24 | –
C1COC(NC(C2CC2)C2CC2)=N1 [rilmenidine] | 16 | –
Cc1c(Cl)cccc1Nc1ccccc1C(=O)O [tolfenamic acid] | 9 | glucose uptake (in words) ([2]; 100 nM and 1 μM): improvement; glucose uptake, drug used alone (in words) ([2]; alone at 3.3 nM): No significant effect; enhancement of glucose uptake ([6]; 0.01 μM): +13%; enhancement of glucose uptake ([6]; 0.1 μM): +13%; enhancement of glucose uptake ([6]; 1 μM): +12%
Cc1ccc(C(=O)C(C)CN2CCCCC2)cc1 (centres unmarked) [tolperisone] | 19 | –
Cc1cccc(Nc2ccncc2S(=O)(=O)NC(=O)NC(C)C)c1 [torasemide] | 16 | glucose uptake, drug used alone (in words) ([2]; alone at 10 nM): No significant effect; enhancement of glucose uptake ([6]; 0.01 μM): +24%; enhancement of glucose uptake ([6]; 1 μM): +14%
Nc1nc(N)c2nc(-c3ccccc3)c(N)nc2n1 [triamterene] | 18 | glucose uptake, drug used alone (in words) ([2]; alone at 3.3 nM): No significant effect; enhancement of glucose uptake ([6]; 0.01 μM): +13%
